{"source": "patent US20260048130A1", "about": "“ALPHA-V BETA-6 (avb6) INTEGRIN LIGANDS FOR EXTRAHEPATIC DELIVERY” (Alnylam Pharmaceuticals, Inc., priority 2022, published 2026)", "key": {"[1]": {"system": "Sod1 mRNA", "assay": "Sod1 mRNA knockdown in mouse lung after intranasal administration (RT-qPCR)", "format": "in vivo", "details": "for % Sod1 Remaining: Day 10, relative to PBS", "experimental": "Heart and quadricep powder were homogenized and lysed in 750 μL of QIAzol Lysis Reagent for 5 minutes×2 at 25 Hz using a TissueLyser. Chloroform ([…]) was thoroughly mixed with each sample and lysates were centrifugated at full speed for 15 minutes at 4° C. Total RNA was isolated from the supernatant using the RNeasy® 96 Universal Tissue Kit. Resulting RNA (1500 ng) was used for cDNA synthesis using the Applied Biosystems™ High-Capacity cDNA Reverse Transcription Kit with RNase Inhibitor. For qPCR reactions, 2 uL cDNA was used per 10 μL reaction. RT-qPCR was performed using the LightCycler® 480 Probes Master in the LightCycler® 480 Instrument system using gene specific TaqMan assays for each target mouse-specific Sod1 (ThermoFisher Scientific, Mm01344233_g1) and Gapdh (ThermoFisher Scientific, Mm99999915_g1) were used for RT-qPCR analysis. Each sample was analyzed in duplicate by RT-qPCR. Data were analyzed using the ΔΔCt method normalizing to control animals treated with 1×PBS alone.\nTable 5 provides the study design used to evaluate the in vivo pharmacodynamic and/or pharmacologic activity of αvβ6 integrin targeting siRNA conjugates in mouse lung following intranasal administration.\nFemale mice were intranasally administered either a single 1 mg/kg or 10 mg/kg dose of the dsRNA agents conjugated to αvβ6 and at Day 10 post-dose animals were sacrificed and lung, heart, liver, and kidney tissues were collected. The level of Sod1 mRNA in the samples was determined by R^T-qPCR as described above."}, "[2]": {"molecular_target": "T1, recombinant human αvβ6 (Homo sapiens, UniProt P06756+P18564, DEL708-788)", "T1 construct": "purchased R&D Systems 3817AV050", "T1 sequence (P06756 31-992 limits assumed, stated change not applied)": "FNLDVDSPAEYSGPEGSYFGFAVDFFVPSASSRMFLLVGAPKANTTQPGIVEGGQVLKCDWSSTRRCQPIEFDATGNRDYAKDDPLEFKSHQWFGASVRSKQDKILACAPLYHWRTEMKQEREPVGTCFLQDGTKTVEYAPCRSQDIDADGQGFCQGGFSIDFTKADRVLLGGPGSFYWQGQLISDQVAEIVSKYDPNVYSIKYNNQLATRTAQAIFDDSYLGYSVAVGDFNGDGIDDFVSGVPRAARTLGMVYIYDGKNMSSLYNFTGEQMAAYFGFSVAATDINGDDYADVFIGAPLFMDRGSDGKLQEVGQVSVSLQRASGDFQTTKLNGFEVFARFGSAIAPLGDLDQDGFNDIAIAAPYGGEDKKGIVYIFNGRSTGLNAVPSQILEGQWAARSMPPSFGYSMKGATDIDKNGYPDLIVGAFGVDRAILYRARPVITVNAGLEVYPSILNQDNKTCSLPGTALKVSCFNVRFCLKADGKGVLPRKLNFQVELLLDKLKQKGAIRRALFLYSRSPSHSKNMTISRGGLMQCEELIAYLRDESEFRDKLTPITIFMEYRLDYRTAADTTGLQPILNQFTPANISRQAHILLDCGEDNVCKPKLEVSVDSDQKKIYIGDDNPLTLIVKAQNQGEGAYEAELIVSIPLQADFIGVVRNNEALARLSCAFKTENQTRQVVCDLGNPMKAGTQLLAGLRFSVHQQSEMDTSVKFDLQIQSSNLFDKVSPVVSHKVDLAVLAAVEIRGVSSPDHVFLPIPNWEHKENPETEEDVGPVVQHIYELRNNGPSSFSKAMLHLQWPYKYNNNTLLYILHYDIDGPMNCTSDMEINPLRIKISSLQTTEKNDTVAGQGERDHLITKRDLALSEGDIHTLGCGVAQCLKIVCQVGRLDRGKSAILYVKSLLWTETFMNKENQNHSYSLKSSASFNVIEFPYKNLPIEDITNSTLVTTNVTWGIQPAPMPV", "T1 sequence (P18564 22-707 limits assumed, stated change not applied)": "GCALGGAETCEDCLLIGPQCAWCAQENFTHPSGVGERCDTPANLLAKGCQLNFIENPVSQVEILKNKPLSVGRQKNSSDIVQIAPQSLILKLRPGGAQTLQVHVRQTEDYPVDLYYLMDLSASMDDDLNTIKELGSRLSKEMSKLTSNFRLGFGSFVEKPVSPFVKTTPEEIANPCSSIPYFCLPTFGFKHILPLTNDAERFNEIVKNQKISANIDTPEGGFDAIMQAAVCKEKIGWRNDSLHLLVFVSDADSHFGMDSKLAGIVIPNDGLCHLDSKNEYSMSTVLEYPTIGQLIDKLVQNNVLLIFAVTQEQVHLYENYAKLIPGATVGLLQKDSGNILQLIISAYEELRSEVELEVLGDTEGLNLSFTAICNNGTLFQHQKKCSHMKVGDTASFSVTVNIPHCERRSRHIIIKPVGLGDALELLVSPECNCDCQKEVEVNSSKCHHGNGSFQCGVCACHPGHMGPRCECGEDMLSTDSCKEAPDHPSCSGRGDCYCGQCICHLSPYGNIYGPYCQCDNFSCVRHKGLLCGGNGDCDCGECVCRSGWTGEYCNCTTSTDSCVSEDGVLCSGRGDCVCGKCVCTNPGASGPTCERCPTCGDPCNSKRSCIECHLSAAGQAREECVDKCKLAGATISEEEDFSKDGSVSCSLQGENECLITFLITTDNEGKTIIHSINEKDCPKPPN", "assay": "ELISA displacement assay (αvβ6 binding to LAP/TGF1b)", "details": "recombinant human αvβ6 vs coated human LAP/TGF1b", "experimental": "ELISA plates were coated with 0.6 ug/mL recombinant human LAP/TGF1b (R&D Systems 246LP025) in carbonate buffer (pH 9.6) overnight at 4 C. Plates were washed with PBST and blocked for 1 hour at room temperature with assay buffer (20 mM Tris-HCl, 150 mM NaCl, 2 mM CaCl2, 2 mM MgCl2, 2 mM MnCl2, 0.5% BSA, pH 7.4). Serial dilutions of competitor compound in assay buffer were added to plate, as well as 1.0 ug/mL of purified recombinant human αvβ6 (R&D Systems 3817AV050), and samples were incubated for 1 hour at room temperature. Plates were washed with PBS-T, then incubated with 2.5 ug/mL of anti-integrin av primary antibody (Sigma MAB1978) for 1 hour at room temperature. Plates were washed with PBS-T, then incubated with 2.0 ug/mL of HRP-conjugated secondary antibody for 1 hour at room temperature. Samples were incubated with TMB substrate (Thermo 34024) for 15 minutes, reaction was quenched with 3 M sulfuric acid, and absorbance was measured at 450 nm. Percent binding inhibition was calculated by normalizing to a maximum value obtained from no-competitor samples and a minimum value obtained from no-competitor-no-integrin samples. EC50 values are reported in the following ranges: “A” EC50>100 nM; “B” EC50 10-100 nM; “C” EC50<10 nM."}}, "note": "In the oligonucleotide strings, read from the 5' end, every base follows the letter of its sugar. An asterisk marks phosphorothioate; unmarked linkages are phosphodiester. Other units and linkages are bracketed, terminal groups are in braces. A string of capitals states the bases alone. {Q410} = αvβ6 integrin ligand conjugate, (S,R) stereochemistry, phosphorothioate-linked; {Q411} = αvβ6 integrin ligand conjugate, (R,R) stereochemistry variant; {L352} = αvβ6 integrin ligand conjugate, (S,R) stereochemistry; {L353} = αvβ6 integrin ligand conjugate, (S,S) stereochemistry; {L373Z511} = αvβ6 integrin ligand conjugate variant; {L373Z512} = αvβ6 integrin ligand conjugate variant; {L373Z513} = αvβ6 integrin ligand conjugate variant; {L354} = αvβ6 integrin ligand conjugate; {VP} = (E)-vinylphosphonate; m = 2'-O-methyl; f = 2'-fluoro", "data": [{"substance": "AD-1481899.1: \"3′,5′ is better than the triple (AD-1481899 vs AD-1481901 as matched pair of (S,R) stereochemistry)\" (sense mC*mA*mUmUmUmUfAmAfUfCfCmUmCmAmCmUmCmUmAmA*mA*{L354}; antisense {VP}-mU*fU*mUmAmGfAmGfUfGmAmGmGmAfUmUfAmAmAmAmUmG*mA*mG; siRNA)", "values": [{"measurement": "% Sod1 Remaining", "setting": "[1]; single intranasal 1 mg/kg", "value": 60.0, "unit": "%"}, {"measurement": "% Sod1 Remaining", "setting": "[1]; single intranasal 10 mg/kg", "value": 52.4, "unit": "%"}]}, {"substance": "AD-1481901.1: \"3′,5′ is better than the triple (AD-1481899 vs AD-1481901 as matched pair of (S,R) stereochemistry)\" (sense {Q410}*mC*mAmUmUmUmUfAmAfUfCfCmUmCmAmCmUmCmUmAmA*mA*{L352}; antisense {VP}-mU*fU*mUmAmGfAmGfUfGmAmGmGmAfUmUfAmAmAmAmUmG*mA*mG; siRNA)", "values": [{"measurement": "% Sod1 Remaining", "setting": "[1]; single intranasal 1 mg/kg", "value": 47.7, "unit": "%"}, {"measurement": "% Sod1 Remaining", "setting": "[1]; single intranasal 10 mg/kg", "value": 35.9, "unit": "%"}]}, {"substance": "AD-1481901: \"inhibition of Sod1 mRNA expression in mouse quadriceps, heart, liver, and lung 21 days after a single 2 mg/kg intravenous dose\" (sense {Q410}*mC*mAmUmUmUmUfAmAfUfCfCmUmCmAmCmUmCmUmAmA*mA*{L352}; antisense {VP}-mU*fU*mUmAmGfAmGfUfGmAmGmGmAfUmUfAmAmAmAmUmG*mA*mG)", "values": [{"measurement": "Sod1 knockdown in mouse lung, comparison between conjugate designs", "setting": "[1]; intranasal, matched pairs by avidity or stereochemistry", "value": "better than the triple"}]}, {"substance": "AD-1481902.1: \"inhibition of Sod1 mRNA expression in mouse quadriceps, heart, liver, and lung 21 days after a single 2 mg/kg intravenous dose\" (sense {Q411}*mC*mAmUmUmUmUfAmAfUfCfCmUmCmAmCmUmCmUmAmA*mA*{L353}; antisense {VP}-mU*fU*mUmAmGfAmGfUfGmAmGmGmAfUmUfAmAmAmAmUmG*mA*mG)", "values": [{"measurement": "% Sod1 Remaining", "setting": "[1]; single intranasal 1 mg/kg", "value": 77.2, "unit": "%"}, {"measurement": "% Sod1 Remaining", "setting": "[1]; single intranasal 10 mg/kg", "value": 51.2, "unit": "%"}]}, {"substance": "AD-1481904.1: dsRNA agent targeting Sod1 conjugated to αvβ6 ligand: \"3′-monos (AD-1481903 (S,R) vs AD-1481904 (S,S))\" (sense mC*mA*mUmUmUmUfAmAfUfCfCmUmCmAmCmUmCmUmAmA*mA*{L353}; antisense {VP}-mU*fU*mUmAmGfAmGfUfGmAmGmGmAfUmUfAmAmAmAmUmG*mA*mG)", "values": [{"measurement": "% Sod1 Remaining", "setting": "[1]; single intranasal 1 mg/kg", "value": 59.2, "unit": "%"}, {"measurement": "% Sod1 Remaining", "setting": "[1]; single intranasal 10 mg/kg", "value": 49.8, "unit": "%"}]}, {"substance": "AD-2032892: \"inhibition of Sod1 mRNA expression in mouse gastrocnemius and quadriceps 21 days after a single 2 mg/kg intravenous dose of AD-2032892\" (sense mU*mU*mGmGmGmCfAmAfAfGfGmUmGmGmAmAmAmUmGmA*mA*{L354}; antisense {VP}-mU*fU*mCmAmUfUmUfCfCmAmCmCmUfUmUfGmCmCmCmAmA*mG*mU)", "values": [{"measurement": "EC50", "setting": "[2]", "value": "< 0.01", "unit": "µM"}]}, {"substance": "AD-2639645 (sense mU*mU*mGmGmGmCfAmAfAfGfGmUmGmGmAmAmAmUmGmA*mA*{L373Z511}; antisense {VP}-mU*fU*mCmAmUfUmUfCfCmAmCmCmUfUmUfGmCmCmCmAmA*mG*mU; siRNA)", "values": [{"measurement": "EC50", "setting": "[2]", "value": "> 0.1", "unit": "µM"}]}, {"substance": "AD-2639646 (sense mU*mU*mGmGmGmCfAmAfAfGfGmUmGmGmAmAmAmUmGmA*mA*{L373Z512}; antisense {VP}-mU*fU*mCmAmUfUmUfCfCmAmCmCmUfUmUfGmCmCmCmAmA*mG*mU; siRNA)", "values": [{"measurement": "EC50", "setting": "[2]", "value": "0.01 to 0.1", "unit": "µM"}]}, {"substance": "AD-2639647 (sense mU*mU*mGmGmGmCfAmAfAfGfGmUmGmGmAmAmAmUmGmA*mA*{L373Z513}; antisense {VP}-mU*fU*mCmAmUfUmUfCfCmAmCmCmUfUmUfGmCmCmCmAmA*mG*mU; siRNA)", "values": [{"measurement": "EC50", "setting": "[2]", "value": "< 0.01", "unit": "µM"}]}]}
